Laboratory results reported in ChEMBL document CHEMBL4007384, “Synthesis and optimization of furano[3,2-d]pyrimidines as selective spleen tyrosine kinase (Syk) inhibitors” (Bioorg Med Chem Lett, 2016).
≈ marks a conversion by molar mass, not a printed value.

How the values were obtained:
[1] = system: Rattus norvegicus; experiment: Antiarthritic activity in rat model of collagen-induced arthritis assessed as inhibition of paw swelling at 3 mg/kg, bid for 8 days relative to control; assay type: functional; settings: 192 h
[2] = Unbound clearance in rat microsomes; assay type: ADME, Microsome
[3] = Unbound clearance in human microsomes; assay type: ADME, Microsome
[4] = Solubility in pH 5 FeSSIF at 0.2 mg sonicated for 10 mins followed by incubation for 2 days by HPLC analysis; assay type: physicochemical
[5] = Volume of distribution at steady state in dog at 1 mg/kg, iv; assay type: ADME, organism-based, Canis lupus familiaris; settings: in vivo, read-out: Vdss
[6] = system: Rattus norvegicus; experiment: Antiarthritic activity in rat model of collagen-induced arthritis assessed as inhibition of paw swelling at 10 mg/kg, bid for 8 days relative to control; assay type: functional; settings: 192 h
[7] = Half life in rat at 1 mg/kg, iv; assay type: ADME, organism-based; settings: in vivo
[8] = Oral bioavailability in dog at 1 mg/kg; assay type: ADME, organism-based, Canis lupus familiaris; settings: in vivo
[9] = system: Rattus norvegicus; experiment: Antiarthritic activity in po dosed rat model of collagen-induced arthritis assessed as inhibition of paw swelling administered bid for 8 days measured on day 8 up to 12 hrs; assay type: functional
[10] = system: Rattus norvegicus; experiment: Antiarthritic activity in rat model of collagen-induced arthritis assessed as inhibition of paw swelling at 30 mg/kg, bid for 8 days relative to control; assay type: functional; settings: 192 h
[11] = system: Rattus norvegicus; experiment: Toxicity in rat model of collagen-induced arthritis at 0.3 to 30 mg/kg, po bid for 8 days; assay type: organism-based; settings: in vivo, 192 h
[12] = AUC in dog at 1 mg/kg, po; assay type: ADME, organism-based, Canis lupus familiaris; settings: in vivo
[13] = Half life in dog at 1 mg/kg, iv; assay type: ADME, organism-based, Canis lupus familiaris; settings: in vivo
[14] = Oral bioavailability in rat at 1 mg/kg; assay type: ADME, organism-based; settings: in vivo
[15] = Cytotoxicity against human HepG2 cells; assay type: cell-based
[16] = Cmax in rat at 1 mg/kg, po; assay type: ADME, organism-based; set-up: dose 1 mg/kg, route oral; settings: in vivo
[17] = Clearance in dog at 1 mg/kg, iv; assay type: ADME, organism-based, Canis lupus familiaris; settings: in vivo
[18] = Cmax in dog at 1 mg/kg, po; assay type: ADME, organism-based, Canis lupus familiaris; set-up: dose 1 mg/kg, route oral; settings: in vivo
[19] = AUC in rat at 1 mg/kg, po; assay type: ADME, organism-based; settings: in vivo
[20] = system: Rattus norvegicus; experiment: Antiarthritic activity in rat model of collagen-induced arthritis assessed as inhibition of paw swelling at 1 mg/kg, bid for 8 days relative to control; assay type: functional; settings: 192 h
[21] = system: Rattus norvegicus; experiment: Antiarthritic activity in rat model of collagen-induced arthritis assessed as inhibition of paw swelling at 0.3 mg/kg, bid for 8 days relative to control; assay type: functional; settings: 192 h
[22] = target: Voltage-gated inwardly rectifying potassium channel KCNH2 (Homo sapiens, UniProt Q12809); experiment: Inhibition of human ERG
Chain of Voltage-gated inwardly rectifying potassium channel KCNH2 (Q12809 whole entry): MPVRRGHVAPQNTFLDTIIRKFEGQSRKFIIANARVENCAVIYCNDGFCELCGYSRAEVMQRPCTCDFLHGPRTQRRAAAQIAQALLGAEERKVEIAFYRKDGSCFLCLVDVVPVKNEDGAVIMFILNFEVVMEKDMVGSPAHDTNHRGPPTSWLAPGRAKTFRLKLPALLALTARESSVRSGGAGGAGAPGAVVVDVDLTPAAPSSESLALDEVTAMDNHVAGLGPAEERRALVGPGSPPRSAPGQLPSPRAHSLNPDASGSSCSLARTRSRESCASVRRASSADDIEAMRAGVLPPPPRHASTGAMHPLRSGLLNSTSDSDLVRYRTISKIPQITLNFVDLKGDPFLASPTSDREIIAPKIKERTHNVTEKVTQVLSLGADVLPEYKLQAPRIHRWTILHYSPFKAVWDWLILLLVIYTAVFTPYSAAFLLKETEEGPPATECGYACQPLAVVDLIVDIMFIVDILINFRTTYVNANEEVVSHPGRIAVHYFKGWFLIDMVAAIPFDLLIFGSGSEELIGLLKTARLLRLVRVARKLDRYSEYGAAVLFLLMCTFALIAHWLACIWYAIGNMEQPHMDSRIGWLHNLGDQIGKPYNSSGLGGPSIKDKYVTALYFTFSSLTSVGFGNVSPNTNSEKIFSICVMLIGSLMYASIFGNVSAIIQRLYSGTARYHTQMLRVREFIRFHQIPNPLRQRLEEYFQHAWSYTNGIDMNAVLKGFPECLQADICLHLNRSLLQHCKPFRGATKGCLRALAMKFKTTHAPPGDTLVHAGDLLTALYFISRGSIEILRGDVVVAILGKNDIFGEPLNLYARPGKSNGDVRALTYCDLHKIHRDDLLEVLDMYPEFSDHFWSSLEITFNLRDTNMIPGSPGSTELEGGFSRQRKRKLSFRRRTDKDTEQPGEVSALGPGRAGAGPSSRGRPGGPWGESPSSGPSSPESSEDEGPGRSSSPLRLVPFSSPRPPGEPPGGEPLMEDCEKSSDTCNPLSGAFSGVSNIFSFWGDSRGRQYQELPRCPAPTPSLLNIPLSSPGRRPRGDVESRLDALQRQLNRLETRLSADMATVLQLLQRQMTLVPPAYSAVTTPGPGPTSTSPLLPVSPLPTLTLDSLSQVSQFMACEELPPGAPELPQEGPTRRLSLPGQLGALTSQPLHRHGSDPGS

[23] = system: Rattus norvegicus; experiment: Antiarthritic activity in po dosed rat model of collagen-induced arthritis assessed as inhibition of paw swelling administered bid for 8 days; settings: 192 h
[24] = Volume of distribution at steady state in rat at 1 mg/kg, iv; assay type: ADME, organism-based; settings: in vivo, read-out: Vdss
[25] = Clearance in rat at 1 mg/kg, iv; assay type: ADME, organism-based; settings: in vivo
[26] = target: Cytochrome P450 3A4 (Homo sapiens, UniProt P08684); experiment: Time-dependent inhibition of CYP3A4 in human liver microsomes at 10 to 50 uM; assay type: ADME
Chain of Cytochrome P450 3A4 (P08684 whole entry): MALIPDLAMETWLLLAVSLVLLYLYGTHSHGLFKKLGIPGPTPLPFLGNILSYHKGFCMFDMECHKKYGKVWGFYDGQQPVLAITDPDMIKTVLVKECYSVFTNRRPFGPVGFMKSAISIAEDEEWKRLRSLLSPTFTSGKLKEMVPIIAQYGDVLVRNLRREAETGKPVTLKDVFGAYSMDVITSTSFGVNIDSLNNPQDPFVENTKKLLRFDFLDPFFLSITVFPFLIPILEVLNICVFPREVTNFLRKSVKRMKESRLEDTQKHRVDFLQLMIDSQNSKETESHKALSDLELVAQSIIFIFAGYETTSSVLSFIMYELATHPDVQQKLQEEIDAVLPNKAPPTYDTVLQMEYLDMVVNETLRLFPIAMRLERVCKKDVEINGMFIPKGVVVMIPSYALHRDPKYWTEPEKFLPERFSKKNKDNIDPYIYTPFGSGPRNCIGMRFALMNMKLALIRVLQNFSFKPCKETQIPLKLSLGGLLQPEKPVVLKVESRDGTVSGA

C[C@]12C=CC(=O)C=C1CC[C@@H]1[C@@H]2[C@@H](O)C[C@@]2(C)[C@H]1CC[C@]2(O)C(=O)CO [PREDNISOLONE] gave an inhibition in vivo at 3 mg/kg [1] of 86%.

Molecule O=C1CCc2ccc(Nc3nc(NCC(F)(F)F)c4occc4n3)cc2N1 has a CL free [2] of 365 mL/min/kg.

In the case of CC1(C)CCC(=O)Nc2cc(Nc3nc(NCC(F)(F)F)c4occc4n3)ccc21, the CL free [2] is reported as 880 mL/min/kg.

Work on CC1(C)Oc2ccc(Nc3nc(NCC(F)(F)F)c4occc4n3)cc2NC1=O yielded a CL free [2] of 177 mL/min/kg.

Molecule COC(=O)N[C@@H]1CC(C)(C)c2ccc(Nc3nc(NC4CC4)c4occc4n3)cc2NC1=O has a CL free [3] of 123 mL/min/kg, a CL free [2] of 182 mL/min/kg and a solubility at 48 h [4] of 27 µM (≈ 12.2 µg/mL).

Molecule COC(=O)N[C@H]1CC(C)(C)c2ccc(Nc3nc(NC4CC4)c4occc4n3)cc2NC1=O has a CL free [3] of 118 mL/min/kg and a CL free [2] of 332 mL/min/kg.

Work on COC(=O)N[C@@H]1CC(C)(C)c2ccc(Nc3nc(NCC(F)F)c4occc4n3)cc2NC1=O yielded a Vd [5] of 2.3 L/kg, an inhibition in vivo at 10 mg/kg [6] of 75% and a half-life [7] of 2 h. For the same molecule, the bioavailability [8] was 40%, the EAUC50 [9] was 3.9 µg·h/mL and the inhibition in vivo at 30 mg/kg [10] was 95%. For the same molecule, the Activity [11] was “Non-Toxic”, the AUC [12] was 2340 ng·h/mL and the inhibition in vivo at 3 mg/kg [1] was 28%. It also gave a half-life [13] of 9.9 h, a CL free [3] of less than 38.3 mL/min/kg and a bioavailability [14] of 27%. It also gave an IC20 [15] greater than 10 µM, a Cmax [16] of 36 ng/mL and a CL free [2] of 177 mL/min/kg. The clearance [17] was 2.83 mL/min/kg, the Cmax [18] was 151 ng/mL and the AUC [19] was 180 ng·h/mL. The inhibition in vivo at 1 mg/kg [20] was 21%, the inhibition in vivo at 0.3 mg/kg [21] was 21% and the solubility at 48 h [4] was greater than 67 µM. The IC50 [22] was greater than 20 µM, the ED50 [23] was 9 mg/kg and the Vd [24] was 4.6 L/kg. For the same molecule, the clearance [25] was 28.3 mL/min/kg and the TDI [26] was “Not Active”.
